Values quoted from earlier work in US20260007632A1, “FORMULATIONS OF DOCETAXEL” (Zhuhai Beihai Biotech Co., Ltd., priority 2020, published 2026).

Assays:
microtubule = settings: relative to paclitaxel

Structure (SMILES)	volume of ethanol required to dissolve 1 g (at 25° C.)	volume of water required to dissolve 1 g (at 25° C.)	potency in inhibiting microtubule depolymerization (microtubule)	solubility in water
CC(=O)Oc1ccccc1C(=O)O [aspirin]	5 mL	300 mL	–	–
CC(=O)O[C@@]12CO[C@@H]1C[C@H](O)[C@@]1(C)C(=O)[C@H](O)C3=C(C)[C@@H](OC(=O)[C@H](O)[C@@H](NC(=O)OC(C)(C)C)c4ccccc4)C[C@@](O)([C@@H](OC(=O)c4ccccc4)[C@H]21)C3(C)C [docetaxel]	–	–	about twice as potent as paclitaxel	very poor water solubility
